System: P. falciparum 3D7 parasites
Test: Metabolomic profiling of compound-treated parasites (LC/MS);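 as to Metabolite data: 3-Phosphoglycerate: Log2 fold change in abundance versus untreated parasite controls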;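 as to Metabolite data: Myo-Inositol: Log2 fold change in abundance versus untreated parasite controls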;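 as to Metabolite data: N-Carbamoyl-L-Aspartate: Log2 fold change in abundance versus untreated parasite controls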;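 as to Metabolite data: Nicotinate: Log2 fold change in abundance versus untreated parasite controls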
Assay type: cell-based
Parameters: Metabolite data: dTMP / Metabolite data: GMP / Metabolite data: S-Adenosyl-L-Homocysteine / Metabolite data: 1_3-Bisphosphoglyceric acid: scale not given here
How it was run: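 Magnetically purified trophozoites (1×10^8 parasites/mL) recovered 1 h in RPMI 1640, incubated a further 2.5 h, quenched in 90% methanol with labeled aspartate. Extracts analysed by reverse-phase C18 LC with negative-mode Orbitrap MS; peak areas normalized to internal standards, blank-subtracted and averaged by condition.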

In the case of `O=C(NNC(=O)c1csnn1)c1ccc(Cl)cc1` [MMV084978-1], the “Metabolite data: 1_3-Bisphosphoglyceric acid” value is reported as 0.1496, the “Metabolite data: 2_3-Diphosphoglyceric acid” value is reported as 0.1496 and the “Metabolite data: 3-Phosphoglycerate” value is reported as 0.2498. For the same compound, the “Metabolite data: 4-Aminobutyrate” value was -0.07219, the “Metabolite data: 4-Phosphopantothenate” value was -0.08759 and the “Metabolite data: 4-phosphopantetheine” value was -0.1079. For the same compound, the “Metabolite data: 5-aminopentanoic acid” value was 0, the “Metabolite data: 5-phosphoribosyl-1-pyrophosphate” value was 0 and the “Metabolite data: 6-Phospho-D-Gluconate” value was -0.01315. For the same compound, the “Metabolite data: ADP-D-Glucose” value was 0.08201, the “Metabolite data: Acetyl-CoA” value was -3.327 and the “Metabolite data: Acetyllysine” value was -0.5311. For the same compound, the “Metabolite data: Aconitate” value was -0.1935, the “Metabolite data: CDP” value was 1.05 and the “Metabolite data: CDP-Ethanolamine” value was 0.1123. For the same compound, the “Metabolite data: CDP-choline” value was -0.1263, the “Metabolite data: CMP” value was 1.555 and the “Metabolite data: CTP” value was 0.5959. The “Metabolite data: Citrate/Isocitrate” value was -0.25, the “Metabolite data: Cyclic-AMP” value was -0.2917 and the “Metabolite data: Dihydroorotate” value was -1.467. The “Metabolite data: FAD” value was 0.02838, the “Metabolite data: FMN” value was 0.1073 and the “Metabolite data: Fructose-1,6-Bisphosphate” value was -0.1507. For the same compound, the “Metabolite data: Fumarate” value was -0.2504, the “Metabolite data: GDP” value was 0.1753 and the “Metabolite data: GMP” value was 0.5608. The “Metabolite data: GTP” value was 0.3192, the “Metabolite data: Glucose-1/6-Phosphate” value was 0 and the “Metabolite data: Glutathione Disulfide” value was -0.0421. The “Metabolite data: Hexose” value was 0.4607, the “Metabolite data: Hydroxyisocaproic acid” value was 0 and the “Metabolite data: Indole” value was -0.02938. For the same compound, the “Metabolite data: Ketoleucine” value was 0, the “Metabolite data: L-arginino-succinate” value was -0.1583 and the “Metabolite data: Lactate” value was -0.4518. For the same compound, the “Metabolite data: Malate” value was -0.3092, the “Metabolite data: Myo-Inositol” value was -0.662 and the “Metabolite data: N-Acetyl-Glutamate” value was -1.234. The “Metabolite data: N-Acetyl-L-Alanine” value was -0.1942, the “Metabolite data: N-Acetyl-L-Ornithine” value was -0.6079 and the “Metabolite data: N-Carbamoyl-L-Aspartate” value was -1.86. The “Metabolite data: NAD+” value was -0.05754, the “Metabolite data: NADH” value was -0.03997 and the “Metabolite data: NADP+” value was -0.01332. For the same compound, the “Metabolite data: NADPH” value was -0.02772, the “Metabolite data: Nicotinate” value was -0.2079 and the “Metabolite data: Octulose 8/1-Phosphate” value was 0.04337. The “Metabolite data: Orotate” value was -1.48, the “Metabolite data: PD” value was -0.5076 and the “Metabolite data: PE” value was -0.5728. For the same compound, the “Metabolite data: PEEK” value was -0.4082, the “Metabolite data: Phenol Red” value was -0.09162 and the “Metabolite data: Pyroglutamic acid” value was -0.04117. For the same compound, the “Metabolite data: S-Adenosyl-L-Homocysteine” value was -0.1413, the “Metabolite data: S-methyl-5'-thioadenosine” value was -0.2314 and the “Metabolite data: SD” value was -0.5901. The “Metabolite data: Sedoheptulose Bisphosphate” value was -0.08586, the “Metabolite data: UDP” value was 0.6291 and the “Metabolite data: UDP-D-Glucose” value was 0.0869. For the same compound, the “Metabolite data: UDP-D-Glucuronate” value was 0.1009, the “Metabolite data: UDP-N-Acetyl-Glucosamine” value was -0.1998 and the “Metabolite data: UMP” value was 1.083. For the same compound, the “Metabolite data: UTP” value was 0.2924, the “Metabolite data: a-ketoglutarate” value was -0.2708 and the “Metabolite data: acetyl-aspartate” value was -0.01834. For the same compound, the “Metabolite data: arginine” value was 0.1881, the “Metabolite data: asparagine” value was 0.1209 and the “Metabolite data: aspartate” value was 0.4643. For the same compound, the “Metabolite data: biotin” value was -0.04446, the “Metabolite data: chlorpropamide” value was -1.60E-16 and the “Metabolite data: coenzyme A” value was -0.006892. For the same compound, the “Metabolite data: dAMP” value was 0.6117, the “Metabolite data: dATP” value was 0.1596 and the “Metabolite data: dCDP” value was -0.02418. The “Metabolite data: dCMP” value was 0.3076, the “Metabolite data: dCTP” value was 0.1432 and the “Metabolite data: dGDP/ADP” value was -0.04263. The “Metabolite data: dGMP/AMP” value was -0.1821, the “Metabolite data: dGTP/ATP” value was 0.1752 and the “Metabolite data: dTDP” value was 0.5413. The “Metabolite data: dTMP” value was 0.4313, the “Metabolite data: dTTP” value was 0.1959 and the “Metabolite data: folate” value was -0.04496. For the same compound, the “Metabolite data: glucono-lactone” value was -0.03642, the “Metabolite data: glutamate” value was -0.04994 and the “Metabolite data: glutamine” value was 0.01906. The “Metabolite data: glutathione” value was -0.07032, the “Metabolite data: histidine” value was -0.03336 and the “Metabolite data: hydroxyproline/Aminolevulinate” value was -0.01874. The “Metabolite data: isoleucine” value was 0.003243, the “Metabolite data: leucine” value was -0.0173 and the “Metabolite data: maleic acid” value was -0.282. The “Metabolite data: methionine” value was 0.1423, the “Metabolite data: nicotinamide mononucleotide” value was -0.4705 and the “Metabolite data: orotidine-5'-phosphate” value was -2.397.
